We go through three compounds from ChEMBL document CHEMBL3286198, “Targeting integrins αvβ3 and α5β1 with new β-lactam derivatives” (Eur J Med Chem, 2014).

Active and inactive are the calls of the source. The rule behind the calls is not given here.

Assay type in all cases: cell-based
In experiment [1] the target is T1, Integrin alpha-5/beta-1 (Homo sapiens, UniProt P05556+P08648). In words: Agonist activity at alpha5beta1 integrin in human K562 cells assessed as increase of fibronectin-mediated cell adhesion after 30 mins by fluorescence assay.
Experiment [2] concerns the target T2, Integrin alpha-V/beta-3 (Homo sapiens, UniProt P05106+P06756). Briefly: Agonist activity at alphavbeta3 integrin in human SK-MEL-24 cells assessed as increase of cell adhesion after 30 mins by fluorescence assay.
For experiment [3], the target named is T1, Integrin alpha-5/beta-1. Briefly: Agonist activity at alpha5beta1 integrin in human K562 cells assessed as increase of cell adhesion after 30 mins by fluorescence assay.
Experiment [4] deals with T2, Integrin alpha-V/beta-3. In words: Agonist activity at alphavbeta3 integrin in human SK-MEL-24 cells assessed as increase of fibronectin-mediated cell adhesion at 10 ug/ml after 30 mins by fluorescence assay in presence of neutralizing antibodies of alphav.
A further experiment concerns the target Integrin alpha-4/beta-1 (Homo sapiens, UniProt P05556+P13612). Briefly: Antagonist activity at alpha4beta1 integrin in human Jurkat E6.1 cells assessed as inhibition of VCAM1-mediated cell adhesion after 30 mins by fluorescence assay.
For experiment [5], the target named is Integrin alpha-IIb/beta-3 (Homo sapiens) (UniProt P05106+P08514). Briefly: Agonist activity at alpha2bbeta3 integrin in PMA-stimulated human K562 cells assessed as increase of cell adhesion after 30 mins by flow cytometry in presence of tirofiban.
Experiment [6] deals with T2, Integrin alpha-V/beta-3. Briefly: Agonist activity at alphavbeta3 integrin in human SK-MEL-24 cells assessed as increase of fibronectin-mediated cell adhesion after 30 mins by fluorescence assay.
In experiment [7] the target is T1, Integrin alpha-5/beta-1. In words: Agonist activity at alpha5beta1 integrin in human K562 cells assessed as increase of fibronectin-mediated cell adhesion at 10 ug/ml after 30 mins by fluorescence assay in presence of neutralizing antibody of beta1.
Experiment [8] has as its target Integrin alpha-L/beta-2 (LFA-1) (Homo sapiens, UniProt P05107+P20701). In words: Antagonist activity at alphaLbeta2 integrin in human Jurkat E6.1 cells assessed as inhibition of ICAM1-mediated cell adhesion after 30 mins by fluorescence assay.
The next experiment has as its system K562. Briefly: Selectivity ratio of EC50 for alphavbeta3 integrin in human SK-MEL-24 cells to EC50 for alpha5beta1 integrin in human K562 cells.

Chain of Integrin alpha-4/beta-1 (P05556 whole entry): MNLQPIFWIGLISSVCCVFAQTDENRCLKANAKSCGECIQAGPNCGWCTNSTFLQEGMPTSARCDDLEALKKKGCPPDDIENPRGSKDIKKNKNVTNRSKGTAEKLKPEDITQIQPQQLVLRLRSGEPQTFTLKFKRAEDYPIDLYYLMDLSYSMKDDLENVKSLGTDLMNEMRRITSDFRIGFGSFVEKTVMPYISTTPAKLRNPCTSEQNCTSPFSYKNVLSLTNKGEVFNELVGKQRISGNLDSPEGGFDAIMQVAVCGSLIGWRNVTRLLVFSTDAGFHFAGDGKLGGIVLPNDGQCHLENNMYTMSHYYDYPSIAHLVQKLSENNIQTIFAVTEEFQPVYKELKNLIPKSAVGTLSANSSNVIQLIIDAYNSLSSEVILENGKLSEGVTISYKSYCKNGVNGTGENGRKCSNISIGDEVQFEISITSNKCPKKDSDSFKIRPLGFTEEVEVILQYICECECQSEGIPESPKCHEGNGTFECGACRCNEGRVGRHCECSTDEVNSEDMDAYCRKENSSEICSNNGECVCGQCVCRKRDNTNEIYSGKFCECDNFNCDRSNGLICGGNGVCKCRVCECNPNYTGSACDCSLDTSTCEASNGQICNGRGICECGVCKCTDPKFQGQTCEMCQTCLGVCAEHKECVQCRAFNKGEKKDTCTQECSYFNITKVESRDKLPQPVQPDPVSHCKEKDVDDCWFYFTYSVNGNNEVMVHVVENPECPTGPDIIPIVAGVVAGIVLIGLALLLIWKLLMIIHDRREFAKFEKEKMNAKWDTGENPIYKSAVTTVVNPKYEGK
Chain of Integrin alpha-4/beta-1 (P13612 whole entry): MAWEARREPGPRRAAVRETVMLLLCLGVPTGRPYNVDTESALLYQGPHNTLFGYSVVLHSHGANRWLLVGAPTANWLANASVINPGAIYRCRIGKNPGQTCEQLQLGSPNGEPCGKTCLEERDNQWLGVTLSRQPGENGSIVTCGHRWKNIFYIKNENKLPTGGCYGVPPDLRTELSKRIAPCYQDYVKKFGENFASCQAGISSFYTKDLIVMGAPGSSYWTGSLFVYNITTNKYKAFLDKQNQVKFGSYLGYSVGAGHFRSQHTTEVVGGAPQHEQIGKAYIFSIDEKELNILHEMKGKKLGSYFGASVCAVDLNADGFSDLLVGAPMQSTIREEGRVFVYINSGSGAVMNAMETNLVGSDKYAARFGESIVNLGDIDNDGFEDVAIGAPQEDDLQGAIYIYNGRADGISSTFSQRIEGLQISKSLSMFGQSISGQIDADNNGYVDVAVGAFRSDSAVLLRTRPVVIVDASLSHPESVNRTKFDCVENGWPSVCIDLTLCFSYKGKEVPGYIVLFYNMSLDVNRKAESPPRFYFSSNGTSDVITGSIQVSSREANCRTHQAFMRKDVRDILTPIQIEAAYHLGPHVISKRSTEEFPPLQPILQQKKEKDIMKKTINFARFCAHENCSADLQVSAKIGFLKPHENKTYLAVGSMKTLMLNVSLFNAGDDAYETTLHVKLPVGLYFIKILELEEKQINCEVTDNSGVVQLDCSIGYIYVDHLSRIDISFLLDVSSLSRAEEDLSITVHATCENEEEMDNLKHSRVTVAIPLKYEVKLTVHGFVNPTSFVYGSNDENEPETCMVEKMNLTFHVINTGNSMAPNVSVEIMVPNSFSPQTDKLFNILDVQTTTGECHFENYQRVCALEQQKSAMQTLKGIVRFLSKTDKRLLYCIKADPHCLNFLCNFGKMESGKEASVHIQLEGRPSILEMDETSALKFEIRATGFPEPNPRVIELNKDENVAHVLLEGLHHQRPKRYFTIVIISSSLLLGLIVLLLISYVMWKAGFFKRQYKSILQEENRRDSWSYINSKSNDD
Chain of Integrin alpha-L/beta-2 (LFA-1) (P20701 whole entry): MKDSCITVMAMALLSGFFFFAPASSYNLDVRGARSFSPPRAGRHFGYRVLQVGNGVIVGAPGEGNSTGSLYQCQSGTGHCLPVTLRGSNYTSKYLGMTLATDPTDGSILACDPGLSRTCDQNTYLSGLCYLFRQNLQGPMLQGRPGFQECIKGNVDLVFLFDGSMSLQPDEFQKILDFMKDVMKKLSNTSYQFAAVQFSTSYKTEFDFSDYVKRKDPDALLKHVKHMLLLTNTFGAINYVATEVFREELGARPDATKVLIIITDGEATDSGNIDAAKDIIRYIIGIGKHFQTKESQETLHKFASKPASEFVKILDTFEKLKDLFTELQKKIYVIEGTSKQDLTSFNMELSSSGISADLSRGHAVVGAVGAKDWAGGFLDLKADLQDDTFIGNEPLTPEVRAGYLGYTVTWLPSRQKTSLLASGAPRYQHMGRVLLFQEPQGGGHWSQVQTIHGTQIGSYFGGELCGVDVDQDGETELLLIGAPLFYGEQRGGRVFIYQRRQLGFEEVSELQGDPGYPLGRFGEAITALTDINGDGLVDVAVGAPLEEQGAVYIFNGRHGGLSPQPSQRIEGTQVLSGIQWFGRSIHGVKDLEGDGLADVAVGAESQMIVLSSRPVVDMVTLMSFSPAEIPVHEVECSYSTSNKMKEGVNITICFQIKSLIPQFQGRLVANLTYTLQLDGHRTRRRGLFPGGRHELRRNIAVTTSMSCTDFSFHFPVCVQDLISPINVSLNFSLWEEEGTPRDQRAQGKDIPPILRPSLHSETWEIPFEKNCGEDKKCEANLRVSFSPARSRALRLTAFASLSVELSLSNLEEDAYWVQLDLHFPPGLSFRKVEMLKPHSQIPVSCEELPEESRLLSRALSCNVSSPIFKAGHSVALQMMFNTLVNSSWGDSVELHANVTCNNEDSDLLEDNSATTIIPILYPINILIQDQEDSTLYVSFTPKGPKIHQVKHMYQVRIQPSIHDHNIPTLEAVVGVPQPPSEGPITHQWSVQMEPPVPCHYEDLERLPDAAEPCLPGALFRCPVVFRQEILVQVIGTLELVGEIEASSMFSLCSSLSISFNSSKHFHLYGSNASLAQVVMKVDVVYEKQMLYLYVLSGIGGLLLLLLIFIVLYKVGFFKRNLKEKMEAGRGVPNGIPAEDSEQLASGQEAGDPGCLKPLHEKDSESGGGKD
Chain of Integrin alpha-L/beta-2 (LFA-1) (P05107 whole entry): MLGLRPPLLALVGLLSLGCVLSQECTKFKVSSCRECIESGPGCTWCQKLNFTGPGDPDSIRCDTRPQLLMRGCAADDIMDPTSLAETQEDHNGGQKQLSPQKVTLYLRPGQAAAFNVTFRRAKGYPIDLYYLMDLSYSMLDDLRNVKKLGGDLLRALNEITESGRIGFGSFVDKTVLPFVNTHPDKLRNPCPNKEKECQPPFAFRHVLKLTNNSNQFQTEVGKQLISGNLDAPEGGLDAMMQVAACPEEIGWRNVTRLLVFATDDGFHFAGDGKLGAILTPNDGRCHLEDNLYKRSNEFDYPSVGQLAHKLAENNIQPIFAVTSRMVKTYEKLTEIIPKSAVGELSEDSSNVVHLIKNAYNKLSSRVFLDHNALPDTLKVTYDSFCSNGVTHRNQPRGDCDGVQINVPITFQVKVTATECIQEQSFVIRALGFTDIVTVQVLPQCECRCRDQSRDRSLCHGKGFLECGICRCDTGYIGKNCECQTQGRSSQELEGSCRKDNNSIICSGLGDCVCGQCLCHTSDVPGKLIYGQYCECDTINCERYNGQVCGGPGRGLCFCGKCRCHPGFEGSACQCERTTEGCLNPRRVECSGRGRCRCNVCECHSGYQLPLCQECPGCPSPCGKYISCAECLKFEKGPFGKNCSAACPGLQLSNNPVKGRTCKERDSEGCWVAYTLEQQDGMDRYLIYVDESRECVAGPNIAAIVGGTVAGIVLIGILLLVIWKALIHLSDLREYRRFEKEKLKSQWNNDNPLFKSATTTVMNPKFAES

Consider `NCc1ccc(NC(=O)N2C(=O)CC2CC(=O)NCC(=O)O)cc1` (stereo not drawn), for which the Activity entry at Integrin alpha-5/beta-1 [1] and on Integrin alpha-V/beta-3 [6] was “Dose-dependent effect” throughout. The EC50 on Integrin alpha-5/beta-1 [1] was 763 nM; at Integrin alpha-V/beta-3 [6], 11 nM. Besides, the result (on Integrin alpha-V/beta-3 [2]; on Integrin alpha-5/beta-1 [3]; in [5]) was Active. Also, the outcome on Integrin alpha-V/beta-3 [4] and on Integrin alpha-5/beta-1 [7] was inactive. Besides, the IC50 (on Integrin alpha-4/beta-1; in experiment [8]) was not below 100000 nM in each case.

With `NCc1ccc(NC(=O)N2C(=O)CC2CC(=O)O)cc1` (stereo not drawn), the Activity result on Integrin alpha-5/beta-1 [1] and on Integrin alpha-V/beta-3 [6] was “Dose-dependent effect” throughout. Besides, the results for the concentration for a half-maximal effect (EC50) on Integrin alpha-5/beta-1 [1] and at Integrin alpha-V/beta-3 [6] were 12 nM and 55 nM, respectively. Besides, the outcome (at Integrin alpha-V/beta-3 [2]; at Integrin alpha-5/beta-1 [3]; in experiment [5]) was Active. Moreover, the outcome on Integrin alpha-V/beta-3 [4] and at Integrin alpha-5/beta-1 [7] was inactive. For the same compound, the IC50 (at Integrin alpha-4/beta-1; in experiment [8]) was not below 100000 nM throughout. Further, in the experiment with K562, the Ratio EC50 was found to be 5.

In the case of `NCc1ccc(NC(=O)N2C(=O)C[C@H]2C(=O)O)cc1`, on Integrin alpha-5/beta-1 [1], the Activity result was “Dose-dependent effect” and the EC50 is 365 nM. At Integrin alpha-V/beta-3 [6], the Activity entry is “Dose-dependent effect” and the EC50 is 10400 nM. The Ratio EC50 in the experiment on K562 was 1000.
